# Assay: Plasma pharmacokinetics of COMPOUND I in Phase I and II studies
# Type: in vivo, patients
smiles,measurement,setting,value
"CN1CCN(c2ccc3nc(-c4c(N)c5c(F)cccc5[nH]c4=O)[nH]c3c2)CC1 [COMPOUND I, 4-amino-5-fluoro-3-[6-(4-methylpiperazin-1-yl)-1H-benzimidazol-2-yl]-1H-quinolin-2-one]",inter-subject coefficient of variation (CV %) for AUC,500 mg/day on a 5 days on/2 days off dosing schedule,around 50%
same,plasma pharmacokinetic,"all doses tested from 25 to 600 mg, continuous daily dosing regimen",time dependent
same,exposure of COMPOUND I with dose,"doses of 400 mg/day and above, continuous daily dosing regimen",prolonged over-proportional exposure

# Source: patent US20140221389A1, “USE OF 4-AMINO-5-FLUORO-3-[6-(4-METHYLPIPERAZIN-1-YL)-1H-BENZIMIDAZOL-2-YL]-1H-QUINOLIN-2-ONE IN THE TREATMENT OF CANCER IN MODERATE HEPATIC IMPAIRED PATIENTS” (Novartis AG, priority 2011, published 2014)
